US9024005B2, “Nucleic acid complexes” (priority 2010, dated 2015)
Where two headings read alike, the source gives them in different places. {Fluorescein} = fluorescein label

What was measured:
TFD = assay: SYBR Green-DNA binding assay: binding of bolasomes to TFDs; conditions: at the concentrations used for sC7 bolasomes; 2 μg TFD/ml
Experimental: To determine the proportion of TFDs being bound by the vesicles, a SYBR-green binding assay was used. TFD complexes were formed as described above in Hepes buffer with the adaptation that the buffer contained 5 μl of a 1 in 10 dilution of SYBR Green I dye (Invitrogen, 10,000× stock prepared in DMSO). Fluorescence was measured (λEX 497 nm, λEM 520 nm) to determine how much bolasome needed to be added to quench the binding of SYBR Green to the TFDs.
SYBR-Green I dye binds specifically to double-stranded DNA and, as it does, gives a strong fluorescent signal. By measuring the change in signal in the presence of different concentrations and types of bolasome, it was possible to calculate the minimum amount of bolasome needed to quench the SYBR-Green binding, due to the dye being excluded by the bolasomes. This was achieved by extrapolation from the linear portion of a titration curve that plotted amount of bolasome added to fluorescent signal. […] At these concentrations no quenching was seen by the monomeric C7.

[1] = Vesicle size distribution of hairpin TFD complexes (Malvern Nanosizer); assay type: physicochemical; conditions: TFD complexes containing hairpin TFD SA SIG and the delivery compound
Experimental: To prepare delivery complexes, 10 mg of compound was suspend in 12.5 ml of 5 mM Hepes pH7.5 (final concentration 0.8 mg/ml) and dissolved by sonication (30×30 s on, 30 s off, on ice at 10μ). Absorbance of the resulting solution was measured at 327 nm to establish an accurate concentration. 12.5 μl delivery compound was mixed with 40 μl 10 μM TFD and 447.5 μl 5 mM Hepes (pH7.5) and sonicated in an ice bath using an MSE 150 Soniprep attached with a microprobe. Thirty cycles of sonication were performed with 30 s on (with 50% power, approximately 10μ) and 30 s off.
The size distributions of the formed vesicles were measured using a Malvern Nanosizer using standard methodology and are set out in Table 3 below: […]

[2] = Weissig et al. 2001 S. T. P. Pharma Sci. 11: 91-96, Table I; cited from earlier work
[3] = Weissig et al. (2006) J. Liposome Res. 16: 249-264, cited from earlier work
EMRSA-15 = assay: Growth assay, TFDs delivered by antibacterial peptides; assay type: cell-based, S. aureus; conditions: for bacterial growth of EMRSA-15, agent alone: TFD alone or Gramicidin alone; for bacterial growth of EMRSA-15, agent alone / bacterial growth of EMRSA-15, TFD with Gramicidin: LB media; for bacterial growth of EMRSA-15, TFD with Gramicidin: 1 μg DB-TFD with 150 ng/ul of Gramicidin; for growth of EMRSA-15, TFD mixed with Buforin II: 96 well plate in vitro assay
Experimental: The following antibacterial peptides were assayed for their ability to deliver TFDs to bacterial cells: Gramicidin, Polymyxin nonapeptide (both purchased from Sigma Aldrich) and Buforin II (Park et al. (2000) Proc. Natl. Acad. Sci. USA 97: 8245-8250). Typically 1 μg of the Sig DB-TFDs and SigScr DB-TFD as described in Example 1 were mixed with between 0.2 and 5 μg of Gramicidin in a total volume of 5 μl 50 mM NaCl. Of this, 1 μl was added to 200 μl of LB broth inoculated with a 1/100 dilution of a glycerol stock of EMRSA-15 at an original density of 0.3 OD (Absorbance at 600 nm) and aliquoted into a well of a 96 well plate. Experiments were performed in triplicate. The plates were incubated at 37° C. with shaking and absorbance readings (at […]) were taken using a plate reader.

[4] = system: Staphylococcus aureus EMRSA 16; assay: Tissue burden study, mouse sepsis model; assay type: in vivo; conditions: Dwass-Steel-Chritchlow-Fligner, all pairwise comparisons
Experimental: Animals were treated in groups of since mice per treatment group, therefore forty eight animals were used in total for the study. Two 10 ml cultures of Staphylococcus aureus EMRSA 16 were prepared and placed on orbital shaker (220 rpm) overnight at 37° C. The following day, the Staphylococcus aureus EMRSA 16 cultures were removed from shaker, pelleted and washed twice before being resuspended in saline to an OD of 0.132 (1.5×10^8 cfu/ml). This stock solution of Staphylococcus aureus EMRSA 16 was then further diluted 1:1.5 in saline (1×10^8 cfu/ml) i.e. 2.0×10^7 bacteria per mouse.
All forty eight mice were then infected with 0.2 ml of the 1.0×10^8/ml suspension by intravenous injection into mouse tail vein. The number of Staphylococcus aureus EMRSA 16 bacteria per ml in the remainder of the suspensions after inoculation was also counted to confirm infection load.
Mice were treated 1, 9 and 17 hours post infection with either compound or vehicle, though vancomycin was only administered after 1 h.
After 25 hours post infection, all animals were weighed and then euthanised. […] Organ homogenates were quantitatively cultured onto CLED agar and incubated at 37° C. for up to 3 days and colonies counted. The data from the culture burdens was analysed by the Kruskal-Wallis test using Stats Direct. […]

MRSA strain, EMRSA-15 = assay: Fluorescence microscopy of uptake of labelled oligonucleotide; assay type: cell-based, S. aureus; conditions: delivered in Buforin II-derivatised complexes formed with Compound 7; overnight growth
Experimental: Derivatised TFD complexes were formed as described, with the exception that the TFD was substituted with a fluorescently labelled oligonucleotide, Tef, that contained a fluorescein dye at the 5′ end. The sequence of the oligonucleotide was:
The derivatised complexes are added to 200 μl of LB broth inoculated with the MRSA strain, EMRSA-15, and grown overnight with shaking at 37° C. The following morning, cells were harvested by centrifugation and washed four times in an equal volume of PBS. A drop of the bacterial suspension was placed on a microscope slide and air dried. Cells were then heat-fixed by passing the slide through a Bunsen flame. The slide was then flooded with a solution of Loeffler's methylene blue (5 mg/ml methylene blue in 69:30:1 (v/v) solution of water:methanol: 1% (w/v) KOH) and allowed to stand for 1 min, after which the excess solution was washed off with water and the cells visualised using a Cairn CCD Fluorescence Microscope.

For `Nc1c2c([n+](CCCCCCCCCC[n+]3c4c(c(N)c5ccccc53)CCCC4)c3ccccc13)CCCC2.[Cl-].[Cl-]` [Compound 7, 10,10′-(decane-1,10-diyl)bis(9-amino-1,2,3,4-tetrahydroacridinium)dichloride], the “quenching of SYBR-Green binding” value (TFD) is listed as “no quenching”, the “Vesicle size distribution (nm)” value [1] is listed as 139 +/− 35 nm and the “published size distribution of the vesicles” value [2] is listed as 169 nm. The “in vitro toxicity compared to dequalinium” value [3] was “less in vitro toxicity than dequalinium” and the “in vitro toxicity compared to dequalinium” value ([3]; listed as Compound 7 analogue) was “lower toxicity in vitro compared to dequalinium”.

For `Nc1c2c([n+](CCCCCCCCCCCC[n+]3c4c(c(N)c5ccccc53)CCCC4)c3ccccc13)CCCC2.[Cl-].[Cl-]` [Compound 7_12, 10,10′-(dodecane-1,12-diyl)bis(9-amino-1,2,3,4-tetrahydroacridinium)dichloride], the “Vesicle size distribution (nm)” value [1] was 117 +/− 32 nm.

For `Cc1cc(N)c2ccccc2[n+]1CCCCCCCCCC[n+]1c(C)cc(N)c2ccccc21` [Dequalinium, reference compound], the “Vesicle size distribution (nm)” value [1] was 75-820 nm.

In the case of Gramicidin [reference compound], the “bacterial growth of EMRSA-15, agent alone” value (EMRSA-15) is reported as “grew as well as the untreated control”.

With “Sig TFD: transcription factor decoy with S. aureus Sig binding site (SEQ ID NO:9), given alone at 1 nM (TTATTATATACCCATCGAAATAATTTCTAATCTTC; DNA, backbone not given here; further chemistry not fully specified; listed as Staphylococcus aureus)” the “Kruskal-Wallis pairwise comparison of kidney burden vs Vancomycin” value [4] was under 0.0001 and the “Kruskal-Wallis pairwise comparison of kidney burden vs Vehicle” value [4] was 0.9203.

With “Tef: fluorescein 5′-labelled oligonucleotide, SEQ ID NO: 52, substitute for the TFD (AGGCGGCCGCGAATTCACTAGTGA; DNA, 5' {Fluorescein}, backbone not given here; listed as Staphylococcus aureus)” the “uptake of labelled oligonucleotide into bacteria (fluorescence view)” value (MRSA strain, EMRSA-15) was “had been internalised”.

B1: scrambled version of the DB-TFD: dumbbell TFD with scrambled Sig binding site, SEQ ID NO: 43 and 44 (nucleic acid)
chain 1: CTTGGTTTTTCCAAGTAGAAAGAAGATTTAGGGCGATTTTATAATATAT
chain 2: CCGTCTTTTTGACGGATATATTATAAAATCGCCCTAAATCTTCTTTCTA
modifications: DNA, backbone not given here; dumbbell decoy with hairpin loops
For B1, the “bacterial growth of EMRSA-15, TFD with Gramicidin” value (EMRSA-15) was “grew as well as the untreated control” and the “growth of EMRSA-15, TFD mixed with Buforin II” value (EMRSA-15) was “no discernable effect on growth”.

B2: Sig DB-TFD: dumbbell TFD with recognition site for S. aureus alternative sigma protein, SEQ ID NO: 30 and 31 (nucleic acid)
chain 1: CTTGGTTTTTCCAAGGAAGATTAGAAATTATTTCGATGGGTATATAATA
chain 2: CCGTCTTTTTGACGGTATTATATACCCATCGAAATAATTTCTAATCTTC
modifications: DNA, backbone not given here; phosphorylated oligos forming dumbbell with hairpin loops, further chemistry not fully specified
In the case of B2, the “bacterial growth of EMRSA-15, TFD with Gramicidin” value (EMRSA-15) is reported as “no bacterial growth”, the “growth of EMRSA-15, TFD mixed with Buforin II” value (EMRSA-15) is reported as “prevented growth” and the “bacterial growth of EMRSA-15, agent alone” value (EMRSA-15) is reported as “grew as well as the untreated control”.
